This passage reports MIC results from patent publication US20070161581A1, “Novel aminoglycoside antibiotics effective against methicillin resistant staphylococcus auerus (mrsas)” (priority 2004, published 2007).

Each structure is given as a SMILES string. In brackets after ≈: the same amount, converted by molar mass.

One assay deals with MRSA-HR. In words: Antimicrobial activity, MIC by agar plate dilution method against MRSA-HR. Format: cell-based, methicillin resistant Staphylococcus aureus. As to conditions: Staphylococcus aureus, read-out: minimal inhibitory concentration (MIC) against MRSA-HR. The method, then: (§1) The minimal inhibitory concentration (MIC, μg/mL) against MRSAs (MRSA-HR and MRSA-LR) were measured for typical comounds of novel aminoglycoside antibiotic derivatives described in the Examples (Example 1, Example 2, Example 9, Example 13, Example 18, Example 24, Example 44, Example 45, Example 48, Example 49, Example 51, Example 52, Example 53, Example 54, and Example 76) by an agar plate dilution method based on the method based on the JAPANESE SOCIETY OF CHEMOTHERAPY. As a result, the MIC value of the compounds described in the Examples was not more than 8 against MRSA-HR and not more than 4 against MRSA-LR. The same test was carried out for arbekacin described in Japanese Patent Laid-Open No. 164696/1980.

In another assay the test system is P. aeruginosa PAO1. Put plainly: Antimicrobial activity, MIC against P. aeruginosa PAO1. The assay is classed as cell-based. As to conditions: Pseudomonas aeruginosa, read-out: minimal inhibitory concentration (MIC) against P. aeruginosa PAO1.
The next assay has as its system MRSA-LR. Put plainly: Antimicrobial activity, MIC by agar plate dilution method against MRSA-LR. Format: cell-based, methicillin resistant Staphylococcus aureus. As to conditions: Staphylococcus aureus, read-out: minimal inhibitory concentration (MIC) against MRSA-LR. The method, then: as §1

For the compound `NCC[C@H](O)C(=O)NC1C[C@H](N)C(O[C@H]2OC(CN)CCC2N)C(O)[C@H]1O[C@H]1OC(CO)[C@H](O)C(N)C1O` (some centres unmarked) [Example 1, 5,4″-diepiarbekacin], the MIC in the assay on MRSA-HR was not above 8 µg/mL; in the assay on P. aeruginosa PAO1, not above 4 µg/mL; with MRSA-LR it was not above 4 µg/mL.

On to `NCC[C@H](O)C(=O)NC1C[C@H](N)C(O[C@H]2OC(CN)CCC2N)C(F)[C@H]1O[C@H]1OC(CO)[C@H](O)C(N)C1O` (stereo partly drawn) [Example 2, 5-Deoxy-4″-epi-5-epifluoroarbekacin], for which the MIC with MRSA-HR was not above 8 µg/mL; in the assay on P. aeruginosa PAO1, not above 4 µg/mL; in the assay on MRSA-LR, not above 4 µg/mL.

With `NCC1CCC(N)[C@@H](OC2C(O)[C@@H](O[C@H]3OC(CO)[C@H](O)C(N)C3O)C(NC(=O)[C@@H](O)CN)C[C@@H]2N)O1` (stereo partly drawn) [Example 9, 1-N-[(S)-(3-amino-2-hydroxypropanoyl)]-5,4″-diepidibekacin], the MIC in the assay on MRSA-HR was not above 8 µg/mL; with P. aeruginosa PAO1 it was not above 4 µg/mL; in the assay on MRSA-LR, not above 4 µg/mL.

Turning to `NCC[C@H](O)C(=O)NC1C[C@H](N)C(O[C@H]2OC(CN)CCC2N)C(O)[C@H]1O[C@H]1OC(CO)[C@@H](O)C(N)C1O` (some centres unmarked) [Example 13, 5-Epiarbekacin], the results for the MIC in the assay with MRSA-HR, with P. aeruginosa PAO1 and with MRSA-LR were not above 8 µg/mL, not above 4 µg/mL and not above 4 µg/mL, respectively.

Turning to `NCC[C@H](O)C(=O)NC1C[C@H](N)C(O[C@H]2OC(CN)CCC2N)C(N)[C@H]1O[C@H]1OC(CO)[C@@H](O)C(N)C1O` (some centres unmarked) [Example 18, 5-Deoxy-5-epiaminoarbekacin], the MIC was not above 8 µg/mL in the assay on MRSA-HR, not above 4 µg/mL in the assay with P. aeruginosa PAO1 and not above 4 µg/mL in the assay with MRSA-LR.

Turning to `NCCNC1C(O[C@H]2OC(CN)CCC2N)[C@@H](N)CC(NC(=O)[C@@H](O)CCN)[C@@H]1O[C@H]1OC(CO)[C@@H](O)C(N)C1O` (stereo partly drawn) [Example 24, 5-Deoxy-5-epi(2-aminoethyl)aminoarbekacin], the MIC is not above 8 µg/mL in the assay with MRSA-HR, not above 4 µg/mL in the assay with P. aeruginosa PAO1 and not above 4 µg/mL in the assay on MRSA-LR.

In the case of `NCC[C@H](O)C(=O)NC1C[C@H](N)C(O[C@H]2OC(CN)C=CC2N)C(O)[C@H]1O[C@H]1OC(CO)[C@@H](O)C(N)C1O` (some centres unmarked) [Example 44, 3′,4′-didehydro-5-epiarbekacin], the MIC in the assay on MRSA-HR is not above 8 µg/mL; in the assay with P. aeruginosa PAO1 it was not above 4 µg/mL; in the assay on MRSA-LR it was not above 4 µg/mL.

Take `NCC[C@H](O)C(=O)NC1C[C@H](N)C(O[C@H]2OC(CN)C=CC2N)C(F)[C@H]1O[C@H]1OC(CO)[C@@H](O)C(N)C1O` (some centres unmarked) [Example 45, 5-Deoxy-3′,4′-didehydro-5-epifluoroarbekacin]: the MIC with MRSA-HR was not above 8 µg/mL; with P. aeruginosa PAO1, not above 4 µg/mL; in the assay on MRSA-LR, not above 4 µg/mL.

Turning to `NCC[C@H](O)C(=O)NC1C[C@H](N)C(O[C@H]2OC(CN)C=CC2N)C(N)[C@H]1O[C@H]1OC(CO)[C@@H](O)C(N)C1O` (some centres unmarked) [Example 48, 5-Deoxy-3′,4′-didehydro-5-epiaminoarbekacin], the MIC in the assay with MRSA-HR was not above 8 µg/mL; with P. aeruginosa PAO1, not above 4 µg/mL; with MRSA-LR, not above 4 µg/mL.

In the case of `NCC[C@H](O)C(=O)NC1C[C@H](N)C(O[C@H]2OC(CN)C=CC2N)C(O)[C@H]1O[C@H]1OC(CO)[C@H](O)C(N)C1O` (some centres unmarked) [Example 51, 3′,4′-Didehydro-5,4″-diepiarbekacin], the MIC in the assay on MRSA-HR was not above 8 µg/mL; in the assay with P. aeruginosa PAO1, not above 4 µg/mL; in the assay on MRSA-LR it was not above 4 µg/mL.

`NCC[C@H](O)C(=O)NC1C[C@H](N)C(O[C@H]2OC(CN)C=CC2N)C(F)[C@H]1O[C@H]1OC(CO)[C@H](O)C(N)C1O` (stereo partly drawn) [Example 52, 5-Deoxy-3′,4′-didehydro-4″-epi-5-epifluoroarbekacin]: the MIC in the assay with MRSA-HR was not above 8 µg/mL; in the assay on P. aeruginosa PAO1 it was not above 4 µg/mL; in the assay on MRSA-LR it was not above 4 µg/mL.

`NCC[C@H](O)C(=O)NC1C[C@H](N)C(O[C@H]2OC(CN)C=CC2N)C(N)[C@H]1O[C@H]1OC(CO)[C@H](O)C(N)C1O` (stereo partly drawn) [Example 53, 5-Deoxy-3′,4′-didehydro-4″-epi-5-epiaminoarbekacin]: the MIC in the assay with MRSA-HR was not above 8 µg/mL; with P. aeruginosa PAO1, not above 4 µg/mL; with MRSA-LR, not above 4 µg/mL.

With `NCC[C@H](O)C(=O)NC1C[C@H](N)C(O[C@H]2OC(CN)C=CC2N)C(O)[C@H]1O[C@H]1OC(CO)CC(N)C1O` (some centres unmarked) [Example 54, 4″-Deoxy-3′,4′-didehydro-5-epiarbekacin], the MIC is not above 8 µg/mL with MRSA-HR, not above 4 µg/mL in the assay on P. aeruginosa PAO1 and not above 4 µg/mL in the assay with MRSA-LR.

On to `NCC[C@H](O)C(=O)NC1C[C@H](N)C(O[C@H]2OC(CN)CCC2N)C(O)[C@H]1O[C@H]1OC(C(O)CN)[C@@H](O)C(N)C1O` (some centres unmarked) [Example 76, 6″-Aminomethylarbekacin], for which the MIC in the assay on MRSA-HR was not above 8 µg/mL; in the assay on P. aeruginosa PAO1, not above 4 µg/mL; in the assay on MRSA-LR, not above 4 µg/mL.

Turning to `NCC[C@H](O)C(=O)N[C@@H]1C[C@H](N)[C@@H](O[C@H]2O[C@H](CN)CC[C@H]2N)[C@H](O)[C@H]1O[C@H]1O[C@H](CO)[C@@H](O)[C@H](N)[C@H]1O` [arbekacin, (S)-1-N-(4-amino-2-hydroxybutyroyl)dibekacin, reference compound], the MIC with MRSA-HR came to 64 µg/mL (≈ 116 µM); in the assay with MRSA-LR, 16 µg/mL (≈ 29 µM).
